In US7998989B2, “2-Imino-1,3-thiazoline-based compounds and T-type calcium channel inhibitors containing the same” (Korea Institute of Science and Technology, priority 2007, dated 2011):

Assays:
[1] = biological target: T1, α1G T-type calcium channel (Homo sapiens, UniProt O43497); experiment: Assay for % inhibiting activity against T-type calcium channel using FDSS6000 (fluo-3 calcium imaging, KCl activation); format: cell-based; details: HEK293, 10 μM; HEK293 cells stably expressing α1G T-type calcium channel and Kir2.1; compounds of the examples; read-out: FDSS (% inhibition)/10uM
T1 construct: host or cells: HEK293
T1 sequence (O43497 whole entry): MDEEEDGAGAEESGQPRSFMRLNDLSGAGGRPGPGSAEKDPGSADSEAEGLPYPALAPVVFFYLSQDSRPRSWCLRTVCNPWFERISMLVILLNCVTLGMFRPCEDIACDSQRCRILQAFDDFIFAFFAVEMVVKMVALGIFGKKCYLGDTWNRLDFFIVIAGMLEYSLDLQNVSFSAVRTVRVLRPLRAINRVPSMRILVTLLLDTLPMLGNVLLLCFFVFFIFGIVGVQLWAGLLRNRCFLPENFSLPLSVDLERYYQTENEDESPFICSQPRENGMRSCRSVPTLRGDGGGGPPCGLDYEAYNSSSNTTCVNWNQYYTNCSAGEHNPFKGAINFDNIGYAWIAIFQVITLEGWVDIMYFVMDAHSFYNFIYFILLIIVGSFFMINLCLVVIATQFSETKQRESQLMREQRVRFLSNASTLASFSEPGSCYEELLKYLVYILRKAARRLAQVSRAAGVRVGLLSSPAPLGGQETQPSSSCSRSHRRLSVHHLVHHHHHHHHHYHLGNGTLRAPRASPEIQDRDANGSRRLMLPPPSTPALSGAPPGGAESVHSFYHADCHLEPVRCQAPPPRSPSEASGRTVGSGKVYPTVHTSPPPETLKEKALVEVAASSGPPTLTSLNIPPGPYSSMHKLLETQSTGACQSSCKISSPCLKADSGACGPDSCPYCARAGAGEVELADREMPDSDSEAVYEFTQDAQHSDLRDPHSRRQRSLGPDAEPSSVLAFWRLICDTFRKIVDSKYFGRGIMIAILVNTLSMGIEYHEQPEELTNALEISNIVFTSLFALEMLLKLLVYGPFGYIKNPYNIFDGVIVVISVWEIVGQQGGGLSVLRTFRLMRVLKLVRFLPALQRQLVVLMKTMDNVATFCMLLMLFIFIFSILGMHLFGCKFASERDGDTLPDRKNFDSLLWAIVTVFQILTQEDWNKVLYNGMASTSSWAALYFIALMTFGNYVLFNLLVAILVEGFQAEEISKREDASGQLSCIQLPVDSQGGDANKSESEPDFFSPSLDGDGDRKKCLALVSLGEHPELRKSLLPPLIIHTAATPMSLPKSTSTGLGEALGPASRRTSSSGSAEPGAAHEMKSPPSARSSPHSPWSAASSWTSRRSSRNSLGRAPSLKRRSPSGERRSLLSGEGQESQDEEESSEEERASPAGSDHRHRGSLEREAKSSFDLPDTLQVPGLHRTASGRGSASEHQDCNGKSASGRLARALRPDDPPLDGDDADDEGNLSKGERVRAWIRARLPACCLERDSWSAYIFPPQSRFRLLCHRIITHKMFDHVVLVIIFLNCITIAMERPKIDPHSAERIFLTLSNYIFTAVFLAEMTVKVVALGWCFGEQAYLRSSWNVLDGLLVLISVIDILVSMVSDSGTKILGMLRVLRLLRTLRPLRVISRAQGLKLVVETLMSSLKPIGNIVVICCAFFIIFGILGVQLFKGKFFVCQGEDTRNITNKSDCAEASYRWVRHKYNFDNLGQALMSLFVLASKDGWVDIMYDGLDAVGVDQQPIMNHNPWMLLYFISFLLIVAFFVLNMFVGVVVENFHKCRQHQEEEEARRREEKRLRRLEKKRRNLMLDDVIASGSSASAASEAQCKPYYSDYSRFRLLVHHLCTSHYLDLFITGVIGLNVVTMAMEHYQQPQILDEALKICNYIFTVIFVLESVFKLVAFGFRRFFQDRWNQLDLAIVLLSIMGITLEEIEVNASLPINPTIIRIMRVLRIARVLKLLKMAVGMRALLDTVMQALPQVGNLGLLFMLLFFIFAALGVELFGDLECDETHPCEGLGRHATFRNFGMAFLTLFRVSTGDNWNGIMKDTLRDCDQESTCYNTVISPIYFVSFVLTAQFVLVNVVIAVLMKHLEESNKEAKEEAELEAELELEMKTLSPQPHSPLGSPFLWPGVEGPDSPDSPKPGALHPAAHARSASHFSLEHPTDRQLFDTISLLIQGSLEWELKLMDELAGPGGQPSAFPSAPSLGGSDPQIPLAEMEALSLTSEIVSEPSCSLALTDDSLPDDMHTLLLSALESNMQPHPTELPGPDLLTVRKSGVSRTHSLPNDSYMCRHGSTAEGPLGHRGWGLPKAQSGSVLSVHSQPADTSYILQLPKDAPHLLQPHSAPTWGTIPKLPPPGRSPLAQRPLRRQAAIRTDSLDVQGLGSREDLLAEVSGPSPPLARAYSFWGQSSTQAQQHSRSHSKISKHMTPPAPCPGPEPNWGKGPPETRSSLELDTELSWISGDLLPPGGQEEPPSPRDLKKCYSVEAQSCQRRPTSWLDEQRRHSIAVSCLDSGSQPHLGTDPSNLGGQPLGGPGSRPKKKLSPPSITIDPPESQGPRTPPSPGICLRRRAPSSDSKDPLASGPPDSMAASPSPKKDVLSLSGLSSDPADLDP
Outline: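 Percent inhibition derived from […] area against untreated control (100%), after 75 s compound pre-exposure and 75 mM KCl activation. Cells: HEK293 with stable α1G plus Kir2.1, fluo-3/AM-labelled (5 μM), assayed in pH 7.4 HEPES containing 10 mM CaCl2.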

melting point	inhibition at 10 µM [1]	SMILES
172.6 °C	43.9%	CCN1C(=NC2CCCCC2)SCC1CC(=O)NCc1ccc(C)cc1.Cl (stereo not shown) [KHG24292, (2-cyclohexylimino-3-ethyl-1,3-thiazolidine-4-yl)-N-(4-methylbenzyl)-acetamide hydrochloride]
189.5 to 191.2 °C	55.8%	CCCN1C(=NC2CCCCC2)SCC1CC(=O)NCc1ccc(C)cc1.Cl (stereo not shown) [KHG24293, [2-cyclohexylimino-3-(n-propyl)-1,3-thiazolidine-4-yl]-N-(4-methylbenzyl)-acetamide hydrochloride]
207 °C	65.7%	CCCN1C(=NC2CCCCC2)SCC1CC(=O)Nc1ccc(C(C)C)cc1.Cl (stereo not shown) [KHG24294, [2-cyclohexylimino-3-(n-propyl)-1,3-thiazolidine-4-yl]-N-(4-isopropylphenyl)-acetamide hydrochloride]
139.2 °C	36.2%	CCCN1C(=NC2CCCCC2)SCC1CC(=O)Nc1cc([N+](=O)[O-])ccc1F.Cl (stereo not shown) [KHG24295, [2-cyclohexylimino-3-(n-propyl)-1,3-thiazolidine-4-yl]-N-(2-fluoro-5-nitrophenyl)-acetamide hydrochloride]
169.7 °C	53.1%	CCCN1C(=NC2CCCCC2)SCC1CC(=O)Nc1ccc(F)cc1.Cl (stereo not shown) [KHG24296, [2-cyclohexylimino-3-(n-propyl)-1,3-thiazolidine-4-yl]-N-(4-fluorophenyl)-acetamide hydrochloride]
188.9 °C	51%	CCCN1C(=NC2CCCCC2)SCC1CC(=O)Nc1ccc(C)cc1.Cl (stereo not shown) [KHG24297, [2-cyclohexylimino-3-(n-propyl)-1,3-thiazolidine-4-yl]-N-(4-methylphenyl)-acetamide hydrochloride]
221.4 °C	60.4%	CCCN1C(=NC2CCCCC2)SCC1CC(=O)Nc1ccc(CC)cc1.Cl (stereo not shown) [KHG24298, [2-cyclohexylimino-3-(n-propyl)-1,3-thiazolidine-4-yl]-N-(4-ethylphenyl)-acetamide hydrochloride]
181.4 °C	36.7%	Cl.O=C(CC1CSC(=NC2CCCCC2)N1Cc1ccccc1)Nc1ccc(Br)cc1 (stereo not shown) [KHG24300, (2-cyclohexylimino-3-benzyl-1,3-thiazolidine-4-yl)-N-(4-bromophenyl)-acetamide hydrochloride]
214.1 °C	58.9%	Cl.O=C(CC1CSC(=NC2CCCCC2)N1Cc1ccccc1)Nc1ccc(F)cc1 (stereo not shown) [KHG24305, (2-cyclohexylimino-3-benzyl-1,3-thiazolidine-4-yl)-N-(4-fluorophenyl)-acetamide hydrochloride]
146.4 °C	53.2%	CCc1ccc(NC(=O)CC2CSC(=NC3CCCCC3)N2Cc2ccccc2)cc1.Cl (stereo not shown) [KHG24306, (2-cyclohexylimino-3-benzyl-1,3-thiazolidine-4-yl)-N-(4-ethylphenyl)-acetamide hydrochloride]
196.5 °C	49.1%	CCN1C(=NC2CCCCC2)SCC1CC(=O)Nc1ccc(F)cc1.Cl (stereo not shown) [KHG24403, (2-cyclohexylimino-3-ethyl-1,3-thiazolidine-4-yl)-N-(4-fluorophenyl)-acetamide hydrochloride]
173.6 to 174.8 °C	64.7%	CCCN1C(=NC2CCCCC2)SCC1CC(=O)Nc1ccc(C(F)(F)F)cc1.Cl (stereo not shown) [KHG24404, [2-cyclohexylimino-3-(n-propyl)-1,3-thiazolidine-4-yl]-N-(4-trifluoromethylphenyl)-acetamide hydrochloride]
204.9 °C	68.4%	CCCN1C(=NC2CCCCC2)SCC1CC(=O)Nc1ccc(C)c(Cl)c1.Cl (stereo not shown) [KHG24405, (2-cyclohexylimino-3-(n-propyl)-1,3-thiazolidine-4-yl)-N-(3-chloro-4-methylphenyl)-acetamide hydrochloride]
156.2 °C	34.4%	CCCCc1ccc(NC(=O)CC2CSC(=NC3CCCCC3)N2Cc2ccccc2)cc1.Cl (stereo not shown) [KHG24406, (2-cyclohexylimino-3-benzyl-1,3-thiazolidine-4-yl)-N-(4-n-butylphenyl)-acetamide hydrochloride]
238.5 °C	48.7%	Cl.O=C(CC1CSC(=NC2CCCCC2)N1Cc1ccccc1)Nc1ccc(C(F)(F)F)cc1 (stereo not shown) [KHG24407, (2-cyclohexylimino-3-benzyl-1,3-thiazolidine-4-yl)-N-(4-trifluoromethylphenyl)-acetamide hydrochloride]
109.2 °C	64.2%	CCCN1C(=NC2CCCCC2)SCC1CC(=O)Nc1cc(Cl)cc(Cl)c1.Cl (stereo not shown) [KHG24415, [2-cyclohexylimino-3-(n-propyl)-1,3-thiazolidine-4-yl]-N-(3,5-dichlorophenyl)-acetamide hydrochloride]
153 to 154 °C	59.8%	CCCCN1C(=NC2CCCCC2)SCC1CC(=O)Nc1cc(Cl)cc(Cl)c1.Cl (stereo not shown) [KHG24416, [2-cyclohexylimino-3-(n-butyl)-1,3-thiazolidine-4-yl]-N-(3,5-dichlorophenyl)-acetamide hydrochloride]
143 to 144 °C	65.8%	CCCCN1C(=NC2CCCCC2)SCC1CC(=O)Nc1ccc(C)cc1Cl.Cl (stereo not shown) [KHG24421, (2-cyclohexylimino-3-(n-butyl)-1,3-thiazolidine-4-yl)-N-(2-chloro-4-methylphenyl)-acetamide hydrochloride]

Continued, molecule first:

SMILES	melting point	inhibition at 10 µM [1]
Cl.O=C(CC1CSC(=NC2CCCCC2)N1Cc1ccccc1)Nc1ccc(Cl)cc1 (stereo not shown) [KHG24299, (2-cyclohexylimino-3-benzyl-1,3-thiazolidine-4-yl)-N-(4-chlorophenyl)-acetamide hydrochloride]	199 °C	45.6%
CC(C)c1ccc(NC(=O)CC2CSC(=NC3CCCCC3)N2Cc2ccccc2)cc1.Cl (stereo not shown) [KHG24303, (2-cyclohexylimino-3-benzyl-1,3-thiazolidine-4-yl)-N-(4-isopropylphenyl)-acetamide hydrochloride]	202.9 °C	31.1%
Cl.O=C(CC1CSC(=NC2CCCCC2)N1C1CC1)Nc1ccc(Oc2ccccc2)cc1 (stereo not shown) [KHG24315, (2-cyclohexylimino-3-cyclopropyl-1,3-thiazolidine-4-yl)-N-(4-phenoxyphenyl)-acetamide hydrochloride]	195 °C	60.8%
CN1C(=NC2CCCCCC2)SCC1C(=O)NCc1cccc(Cl)c1.Cl (stereo not shown) [KHG24336, (2-cycloheptylimino-3-methyl-1,3-thiazolidine-4-yl)-N-(3-chlorobenzyl)-carboxamide hydrochloride]	230 to 231 °C	60.1%
CN1C(=NC2CCCCCC2)SCC1C(=O)NCc1ccc(Cl)cc1.Cl (stereo not shown) [KHG24337, (2-cycloheptylimino-3-methyl-1,3-thiazolidine-4-yl)-N-(4-chlorobenzyl)-carboxamide hydrochloride]	220 to 222 °C	56.6%
CN1C(=NC2CCCCCC2)SCC1C(=O)NCc1ccc(Cl)c(Cl)c1.Cl (stereo not shown) [KHG24338, (2-cycloheptylimino-3-methyl-1,3-thiazolidine-4-yl)-N-(3,4-dichlorobenzyl)-carboxamide hydrochloride]	218 to 219 °C	70.8%
COc1ccc(CNC(=O)C2CSC(=NC3CCCCCC3)N2C)cc1.Cl (stereo not shown) [KHG24339, (2-cycloheptylimino-3-methyl-1,3-thiazolidine-4-yl)-N-(4-methoxybenzyl)-carboxamide hydrochloride]	156 to 159 °C	44.2%
Cl.O=C(CC1CSC(=NC2CCCCC2)N1Cc1ccccc1)Nc1cc(Cl)ccc1F (stereo not shown) [KHG24408, (2-cyclohexylimino-3-benzyl-1,3-thiazolidine-4-yl)-N-(5-chloro-2-fluorophenyl)-acetamide hydrochloride]	194.8 °C	32.6%
CCN1C(=NC2CCCCC2)SCC1CC(=O)Nc1cc(Cl)cc(Cl)c1.Cl (stereo not shown) [KHG24414, (2-cyclohexylimino-3-ethyl-1,3-thiazolidine-4-yl)-N-(3,5-dichlorophenyl)-acetamide hydrochloride]	100.5 °C	61%
CN1C(=NC23CC4CC(CC(C4)C2)C3)SCC1CC(=O)Nc1cc(Cl)cc(Cl)c1.Cl (stereo not shown) [KHG24417, [2-(1-adamantyl)imino-3-methyl-1,3-thiazolidine-4-yl]-N-(3,5-dichlorophenyl)-acetamide hydrochloride]	238 to 240 °C	59.1%
Cc1ccc(NC(=O)CC2CSC(=NC34CC5CC(CC(C5)C3)C4)N2C)c(Cl)c1.Cl (stereo not shown) [KHG24418, [2-(1-adamantyl)imino-3-methyl-1,3-thiazolidine-4-yl]-N-(2-chloro-4-methylphenyl)-acetamide hydrochloride]	234 to 236 °C	56.9%
COc1ccc(NC(=O)CC2CSC(=NC34CC5CC(CC(C5)C3)C4)N2C)cc1.Cl (stereo not shown) [KHG24419, [2-(1-adamantyl)imino-3-methyl-1,3-thiazolidine-4-yl]-N-(4-methoxyphenyl)-acetamide hydrochloride]	227 to 229 °C	46.7%
CCN1C(=NC2CCCCC2)SCC1CC(=O)Nc1ccc(C)cc1Cl.Cl (stereo not shown) [KHG24420, (2-cyclohexylimino-3-ethyl-1,3-thiazolidine-4-yl)-N-(2-chloro-4-methylphenyl)-acetamide hydrochloride]	115 °C	58.5%
Cl.O=C(CC1CSC(=NC2CCCCC2)N1Cc1ccccc1)Nc1cc(Cl)cc(Cl)c1 (stereo not shown) [KHG24422, (2-cyclohexylimino-3-benzyl-1,3-thiazolidine-4-yl)-N-(3,5-dichlorophenyl)-acetamide hydrochloride]	178 to 179 °C	46.3%
